Data from patent publication US12440528B2, “Methods of treating ovarian cancer with hemp extract” (Ecofibre USA Inc., priority 2021, dated 2025).

tested on: patient derived endometrial cancer organoids; assay: Carboplatin alone or with Cannabis extract, endometrial cancer organoids; type: cell-based, human; settings: carboplatin alone 50 μg/mL
Description: To determine if this premise is conserved over different chemotherapeutic agents, Applicant repeated the tests replacing paclitaxel with carboplatin toward a related gynecological cancer cell, endometrial cancer cells. The surprising findings with paclitaxel were further confirmed by testing the impacts of carboplatin alone or carboplatin with a Cannabis extract.
Finally, with a dose of 250 μm/mL carboplatin, a 2.5× in the dose from the […] test, all of the combined therapeutics with carboplatin and Cannabis extract are below 10% viability, while the carboplatin alone remains at above 30%.

N.N.O=C([O-])C1(C(=O)[O-])CCC1.[Pt+2] [Carboplatin] was tested. Which viability did it give?
Its viability is “about 50%”.

same assay, conditions: carboplatin alone 100 μg/mL

N.N.O=C([O-])C1(C(=O)[O-])CCC1.[Pt+2] [Carboplatin] was tested. Which viability did it give?
The viability was “about 50%”.

same assay, conditions: carboplatin alone 50 to 250 μm/mL

How did the “total drop in viability on increasing the dose by 5×” value turn out when N.N.O=C([O-])C1(C(=O)[O-])CCC1.[Pt+2] [Carboplatin] was run?
Its value is “about 17%”.

tested on: patient derived chemosensitive and chemoresistant ovarian cancer organoids; assay: Four Cannabis extracts on newly obtained ovarian cancer organoids, viability; type: cell-based, human; settings: 50 μg/mL
Protocol: Applicant then tested several different Cannabis extracts at varying concentrations on newly obtained patient derived chemosensitive and chemoresistant ovarian cancer organoids. […] Here, the BSHE continued to work at virtually the same level as prior tests, even though these organoids were generated from different patients than all prior tests. […] However, what remains constant is that at or about 10 μg/mL, virtually all patient derived organoid samples begin to or reach zero viability.

C=C(C)[C@@H]1CCC(C)=C[C@H]1c1c(O)cc(CCCCC)c(C(=O)O)c1O [CBDA, cannabidiolic acid] was tested. Which viability did it give?
The viability was “nearing zero viability”.

tested on: patient derived organoids; assay: not given; type: cell-based, human; settings: organoid cell death
Description: A few of the above drug products, as well as additional drugs were tried for response to patient derived organoids.

For CN(C)/N=N/c1[nH]cnc1C(N)=O [Dacarbazine], which “% Cell Death” value is on record?
The value was 32%.

With CO[C@@]12[C@H](COC(N)=O)C3=C(C(=O)C(C)=C(N)C3=O)N1C[C@@H]1N[C@@H]12 [mitomycin] as the molecule, how does the “% Cell Death” value read?
The value was “No Response”.

Which “% Cell Death” value does the source give for N.N.[Cl][Pt][Cl] [Cisplatin] here?
Its value is 36%.

For COc1cc([C@@H]2c3cc4c(cc3[C@@H](O[C@@H]3O[C@@H]5CO[C@@H](C)O[C@H]5[C@H](O)[C@H]3O)[C@H]3COC(=O)[C@H]23)OCO4)cc(OC)c1O [Etoposide], which “% Cell Death” value is on record?
Its value is 33%.

For Bleomycin, which “% Cell Death” value is on record?
Its value is 53%.

Which “% Cell Death” value does the source give for O=P1(N(CCCl)CCCl)NCCCO1 (centres unmarked) [Cyclosphosphamide] here?
The value was 32%.

For O=C1c2c(O)ccc(O)c2C(=O)c2c(NCCNCCO)ccc(NCCNCCO)c21 [Mitoxantrone], which “% Cell Death” value is on record?
Its value is 50%.

For CO[C@H]1C(=O)[C@]2(C)[C@@H](OC)C[C@H]3OC[C@@]3(OC(C)=O)[C@H]2[C@H](OC(=O)c2ccccc2)[C@]2(O)C[C@H](OC(=O)[C@H](O)[C@@H](NC(=O)OC(C)(C)C)c3ccccc3)C(C)=C1C2(C)C [Cabazitaxel], which “% Cell Death” value is on record?
Its value is 37%.

For 5-Fluorouaracil/Capecitabine, which “% Cell Death” value is on record?
Its value is 61%.

With CC(=O)O[C@@]12CO[C@@H]1C[C@H](O)[C@@]1(C)C(=O)[C@H](O)C3=C(C)[C@@H](OC(=O)[C@H](O)[C@@H](NC(=O)OC(C)(C)C)c4ccccc4)C[C@@](O)([C@@H](OC(=O)c4ccccc4)[C@H]21)C3(C)C [Docetaxel] as the molecule, how does the “% Cell Death” value read?
Its value is “No Response”.

For Cn1nnc2c(C(N)=O)ncn2c1=O [Temozolomide], which “% Cell Death” value is on record?
Its value is 40%.

With CCc1c2c(nc3ccc(OC(=O)N4CCC(N5CCCCC5)CC4)cc13)-c1cc3c(c(=O)n1C2)COC(=O)[C@]3(O)CC [Irinotecan] as the molecule, how does the “% Cell Death” value read?
The value was 51%.

For C=C1C[C@@H]2CC[C@@]34C[C@H]5O[C@H]6[C@@H](O3)[C@H]3O[C@H](CC[C@@H]3O[C@H]6[C@H]5O4)CC(=O)C[C@@H]3[C@@H](OC)[C@@H](C[C@H](O)CN)O[C@H]3C[C@H]3O[C@@H](CC[C@@H]1O2)C[C@@H](C)C3=C [eribulin], which “% Cell Death” value is on record?
The value was “No Response”.

Which “% Cell Death” value does the source give for COc1cc2c(cc1O)CCN[C@]21CS[C@@H]2c3c(OC(C)=O)c(C)c4c(c3[C@H](COC1=O)N1[C@@H]2[C@H]2c3c(cc(C)c(OC)c3O)C[C@@H]([C@@H]1O)N2C)OCO4 [Trabectedine] here?
Its value is 32%.

CC[C@]1(O)C[C@@H]2CN(CCc3c([nH]c4ccccc34)[C@@](C(=O)OC)(c3cc4c(cc3OC)N(C)[C@H]3[C@@](O)(C(=O)OC)[C@H](OC(C)=O)[C@]5(CC)C=CCN6CC[C@]43[C@@H]65)C2)C1 [Vinblastine] was tested. Which “% Cell Death” value did it give?
Its value is 38%.

With N.N.O=C([O-])C1(C(=O)[O-])CCC1.[Pt+2] [Carboplatin] as the molecule, how does the “% Cell Death” value read?
The value was 30%.

How did the “% Cell Death” value turn out when CC[C@]1(O)C[C@H]2CN(CCc3c([nH]c4ccccc34)[C@@](C(=O)OC)(c3cc4c(cc3OC)N(C=O)[C@H]3[C@@](O)(C(=O)OC)[C@H](OC(C)=O)[C@]5(CC)C=CCN6CC[C@]43[C@@H]65)C2)C1 [vincristine] was run?
Its value is “No Response”.

Which “% Cell Death” value does the source give for CCC1=C[C@@H]2CN(C1)Cc1c([nH]c3ccccc13)[C@@](C(=O)OC)(c1cc3c(cc1OC)N(C)[C@H]1[C@@](O)(C(=O)OC)[C@H](OC(C)=O)[C@]4(CC)C=CCN5CC[C@]31[C@@H]54)C2 [Vinorelbine] here?
The value was 45%.

For O=C1[O][Pt]2([NH][C@@H]3CCCC[C@H]3[NH]2)[O]C1=O [oxaliplatin], which “% Cell Death” value is on record?
The value was “No Response”.

With O=P1(NCCCl)OCCCN1CCCl (centres unmarked) [ifosfamide] as the molecule, how does the “% Cell Death” value read?
The value was “No Response”.

Which “% Cell Death” value does the source give for COc1cccc2c1C(=O)c1c(O)c3c(c(O)c1C2=O)C[C@@](O)(C(=O)CO)C[C@@H]3O[C@H]1C[C@H](N)[C@H](O)[C@H](C)O1 [Doxorubicin] here?
Its value is 39%.

Which “% Cell Death” value does the source give for N[C@@H](Cc1ccc(N(CCCl)CCCl)cc1)C(=O)O [Melphalan] here?
The value was 40%.

With Nc1nc2[nH]cc(CCc3ccc(C(=O)N[C@@H](CCC(=O)O)C(=O)O)cc3)c2c(=O)[nH]1 [Pemetrexed] as the molecule, how does the “% Cell Death” value read?
Its value is “No Response”.

For COc1cccc2c1C(=O)c1c(O)c3c(c(O)c1C2=O)C[C@@](O)(C(=O)CO)C[C@@H]3O[C@H]1C[C@H](N)[C@@H](O)[C@H](C)O1 [epirubicin], which “% Cell Death” value is on record?
Its value is “No Response”.

For Nc1ccn([C@@H]2O[C@H](CO)[C@@H](O)C2(F)F)c(=O)n1 [Gemcitabine], which “% Cell Death” value is on record?
The value was 56%.

CN(Cc1cnc2nc(N)nc(N)c2n1)c1ccc(C(=O)N[C@@H](CCC(=O)O)C(=O)O)cc1 [methotrexate] was tested. Which “% Cell Death” value did it give?
Its value is “No Response”.

same assay, conditions: organoid of the chemoresistant endometrial cancer patient

With gemcitabine/capecitabine [GemCap] as the molecule, how does the “response of the patient's organoid” value read?
Its value is “partial response”.

tested on: patient derived organoids (PD3D Cell Culture); assay: Calculated IC50 in PD3D cell culture of the patient derived organoids; type: cell-based, human; settings: not given

For O=C1O[C@H]([C@@H](O)CO)C(O)=C1O [Ascorbic Acid], which “Calculated IC50 PD3D Cell Culture” value is on record?
The value was “Not Reached”.

How did the “Calculated IC50 PD3D Cell Culture” value turn out when CCN(CC)CCNC(=O)c1c(C)[nH]c(/C=C2\C(=O)Nc3ccc(F)cc32)c1C [Sunitnib] was run?
The value was “Not Reached”.

For C[C@@H](Oc1cc(-c2cnn(C3CCNCC3)c2)cnc1N)c1c(Cl)ccc(F)c1Cl [Crizotinib], which “Calculated IC50 PD3D Cell Culture” value is on record?
The value was “Not Reached”.

N[C@@H](CCC(=O)N[C@@H](CS)C(=O)NCC(=O)O)C(=O)O [Glutathione] was tested. Which “Calculated IC50 PD3D Cell Culture” value did it give?
Its value is “Not Reached”.

How did the “Calculated IC50 PD3D Cell Culture” value turn out when Nc1cccc2c1C(=O)N(C1CCC(=O)NC1=O)C2=O (centres unmarked) [Pomalidomide] was run?
Its value is “Not Reached”.

How did the “Calculated IC50 PD3D Cell Culture” value turn out when Bevacizumab was run?
The value was “Not Reached”.

How did the “Calculated IC50 PD3D Cell Culture” value turn out when O=C(O)C(Cl)Cl [Dichloracetate] was run?
The value was “Not Reached”.

CCN(CCO)CCCC(C)Nc1ccnc2cc(Cl)ccc12 (centres unmarked) [Hydroxychloroquine] was tested. Which “Calculated IC50 PD3D Cell Culture” value did it give?
Its value is “Not Reached”.

For O=C(c1cc(Cc2n[nH]c(=O)c3ccccc23)ccc1F)N1CCN(C(=O)C2CC2)CC1 [Olaparib], which “Calculated IC50 PD3D Cell Culture” value is on record?
Its value is “Not Reached”.

Which “Calculated IC50 PD3D Cell Culture” value does the source give for COc1cc2nccc(Oc3ccc(NC(=O)NC4CC4)c(Cl)c3)c2cc1C(N)=O [Lenvatinib] here?
Its value is “Not Reached”.

Which “Calculated IC50 PD3D Cell Culture” value does the source give for O=C(c1ccc(F)c(F)c1Nc1ccc(I)cc1F)N1CC(O)([C@@H]2CCCCN2)C1 [Cobimetinib] here?
The value was “Not Reached”.

With Nc1nc2[nH]cc(CCc3ccc(C(=O)N[C@@H](CCC(=O)O)C(=O)O)cc3)c2c(=O)[nH]1 [Pemetrexed] as the molecule, how does the “Calculated IC50 PD3D Cell Culture” value read?
The value was “Not Reached”.

CN(C)C(=N)N=C(N)N [Metformin] was tested. Which “Calculated IC50 PD3D Cell Culture” value did it give?
The value was “Not Reached”.
